Reference: ChEMBL document CHEMBL3860033, “Recent advances of cytotoxic chalconoids targeting tubulin polymerization: Synthesis and biological activity” (Eur J Med Chem, 2016)
Each block holds one compound with its values, some of them ahead of it.

Tests used:
[1] = Cytotoxicity against human K562 cells assessed as growth inhibition after 5 days by MTT assay; type: functional, cell-based; settings: K562, 120 h
[2] = Cytotoxicity against human Capan1 cells assessed as decrease in cell viability after 24 to 48 hrs by CCK8 assay; type: functional, cell-based; settings: CAPAN-1
[3] = Cytotoxicity against human A549 cells assessed as decrease in cell viability after 72 hrs by MTT assay; type: functional, cell-based; settings: A549, 72 h
[4] = Cytotoxicity against human HCT116 cells assessed as decrease in cell viability after 72 hrs by MTT assay; type: functional, cell-based; settings: HCT-116, 72 h
[5] = Cytotoxicity against human HeLa cells assessed as decrease in cell viability after 72 hrs by MTT assay; type: functional, cell-based
[6] = Inhibition of porcine brain tubulin polymerization by spectrophotometric method; design: species or system Sus scrofa
[7] = Displacement of [3H]-colchicine from porcine tubulin; design: species or system Sus scrofa
[8] = Cytotoxicity against human SW620 cells assessed as decrease in cell viability after 24 to 48 hrs by CCK8 assay; type: functional, cell-based; settings: SW-620
Ovis aries = organism: Ovis aries; experiment: Binding affinity to lamb brain tubulin using ultracentrifuge by absorbance assay
[9] = Cytotoxicity against human NCI60 cells after 48 hrs by SRB assay; type: functional; settings: NCI60, 48 h

SMILES: COc1ccc(C=C(C)C(=O)c2cc(OC)c(OC)c(OC)c2)cc1O
- IC50 [1]: 0.0002 µM

SMILES: COc1ccc(C(=O)/C=C/c2cccc3ccccc23)c(O)c1
- IC50 [2]: 5.2 µM

SMILES: CCOc1cc2c(cc1C(=O)/C=C/c1ccc(OC)c(O)c1)OCS2
- IC50 [3]: 0.001 to 0.009 µM
- IC50 [4]: 0.001 to 0.009 µM
- IC50 [5]: 0.001 to 0.009 µM

- IC50 [6]: 22 µM
- IC50 [7]: 60 µM
SMILES: COc1ccc(/C=C2\Oc3c(cc(OC)c(OC)c3OC)C2=O)cc1O

SMILES: COc1cc(OC)c(/C=C/C(=O)c2c(O)ccc3ccccc23)c(OC)c1
- IC50 [8]: 14.5 µM

- Kapp (Ovis aries): 2 ×10⁵ /M
SMILES: COc1cc(OC)c(C(=O)/C=C/c2cn(C)c3ccccc23)c(OC)c1

SMILES: COc1cc(C(=O)C2OC2c2cc(OC)c(OC)c(OC)c2)cc(OC)c1OC (stereo not given)
- GI50 [9]: 14.1 µM
